Measurements: the NIST ThermoML archive (doi:10.1016/j.jct.2011.02.005)
Numbers after ± are expanded uncertainties.

Test: mn = molality of the nth substance listed, in mol/kg
Conditions: 298.15 K, 101 kPa, Liquid, Vibrating tube method

Row | mass density (m1 = 0.0499) | mass density (m1 = 0.1004) | mass density (m1 = 0.1501) | mass density (m1 = 0.2) | mass density (m1 = 0.2492) | mass density (m1 = 0.2995) | mass density (m1 = 0.3512) | mass density (m1 = 0.3991) | mass density (m1 = 0.4485) | mass density (m1 = 0.5013) | mass density (m1 = 0.5509) | mass density (m1 = 0.5987) | mass density (m1 = 0.1998) | mass density (m1 = 0.35) | mass density (m1 = 0.4985) | mass density (m1 = 0.6496) | mass density (m1 = 0.7999) | mass density (m1 = 0.95) | Structure (SMILES)
1 | 1000.08 ± 0.064 kg/m3 | 1002.85 ± 0.065 kg/m3 | 1005.55 ± 0.066 kg/m3 | 1008.22 ± 0.067 kg/m3 | 1010.83 ± 0.068 kg/m3 | 1013.46 ± 0.069 kg/m3 | 1016.13 ± 0.07 kg/m3 | 1018.57 ± 0.071 kg/m3 | 1021.04 ± 0.072 kg/m3 | 1023.68 ± 0.074 kg/m3 | 1026.15 ± 0.075 kg/m3 | 1028.49 ± 0.076 kg/m3 |  |  |  |  |  |  | O=C(O)CNCC(=O)O [N-(carboxymethyl)glycine] + O
2 |  |  |  |  |  |  |  |  |  |  |  |  | 1006.8 ± 0.067 kg/m3 | 1013.81 ± 0.07 kg/m3 | 1020.47 ± 0.073 kg/m3 | 1027.38 ± 0.077 kg/m3 | 1033.72 ± 0.08 kg/m3 | 1039.84 ± 0.084 kg/m3 | OC[C@@H](O)[C@H](O)[C@@H](O)CO [xylitol] + O
